Laboratory results reported in patent publication US6635670B2, “sPLA2 inhibitors” (Eli Lilly and Company, priority 1999, dated 2003).

What follows are molecules tested against T1, recombinant human secreted phospholipase A2 (Homo sapiens, UniProt P14555) (assay: chromogenic assay for inhibitors of recombinant human secreted phospholipase A2). Conditions: not given.
T1 sequence (P14555 21-144): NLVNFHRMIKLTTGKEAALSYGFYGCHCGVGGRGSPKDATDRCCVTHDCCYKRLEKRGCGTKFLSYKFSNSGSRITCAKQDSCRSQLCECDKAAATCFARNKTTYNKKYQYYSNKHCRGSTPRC
Assay type: biochemical
Text: The following chromogenic assay procedure was used to identify and evaluate inhibitors of recombinant human secreted phospholipase A2. The assay described herein has been adapted for high volume screening using 96 well microtiter plates. A general description of this assay method is found in the article, “Analysis of Human Synovial Fluid Phospholipase A2 on Short Chain Phosphatidylcholine-Mixed Micelles: Development of a Spectrophotometric Assay Suitable for a Microtiterplate Reader”, by Laure J. Reynolds, Lori L. Hughes, and Edward A Dennis, Analytical Biochemistry, 204, pp. 190-197, 1992 (the disclosure of which is incorporated herein by reference):
REACTION BUFFER —CaCl2. 2H2O (1.47 g/L) KCl (7.455 g/L) Bovine Serum Albumin (fatty acid free) (1 g/L) (Sigma A-7030, product of Sigma Chemical Co., St. Louis Mo., USA) TRIS HCl (3.94 g/L) pH 7.5 (adjust with NaOH)
ENZYME BUFFER-0.05 NaOAc.3H2O, pH 4.5 0.2 NaCl Adjust pH to 4.5 with acetic acid DTNB-5,5′-dithiobis-2-nitrobenzoic acid
RACEMIC DIHEPTANOYL THIO-PC racemic 1,2-bis(heptanoylthio)-1,2-dideoxy-sn-glycero-3-phosphorylcholine TRITON X-100™ prepare at 6.249 mg/ml in reaction buffer to equal […].
A measured volume of racemic dipheptanoyl thio PC supplied in chloroform at a concentration of 100 mg/ml is taken to dryness and redissolved in 10 millimolar
TRITON X-100™ nonionic detergent aqueous solution.
Reaction Buffer is added to the solution, then DTNB to give the Reaction Mixture.
The reaction mixture thus obtained contains 1 mM diheptanoly thio-PC substrate, 0.29 mm Triton X-100™ detergent, and 0.12 mm DTMB in a buffered aqueous solution at pH 7.5.
1. Add 0.2 ml reaction mixture to all wells;
2. Add 10 ul test compound (or solvent blank) to appropriate wells, mix 20 seconds;
3. Add 50 nanograms of sPLA2 (10 microliters) to appropriate wells;
4. Incubate plate at 40° C. for 30 minutes;
5. Read absorbance of wells at 405 nanometers with an automatic plate reader.
All compounds were tested in triplicate. Typically, compounds were tested at a final concentration of 5 ug/ml. […] Lack of color development at 405 nanometers evidenced inhibition. Compounds initially found to be active were reassayed to confirm their activity and, if sufficiently active, IC50 values were determined. […] In all cases, % inhibition measured at 405 nanometers generated by enzyme reactions containing inhibitors relative to the uninhibited control reactions was determined. Each sample was titrated in triplicate and result values were averaged for plotting and calculation of IC50 values. IC50 were determined by plotting log concentration versus inhibition values in the range from 10-90% inhibition.

| SMILES | IC50 [nM] |
| --- | --- |
| CCc1c(C(=O)C(N)=O)c2c(OCC(=O)OC)cccc2n1Cc1ccccc1 [Compound 1, [[3-(2-Amino-1,2-dioxoethyl)-2-ethyl-1-(phenylmethyl)-1H-indol-4-yl]oxy]acetic acid methyl ester] | 49 |

Same assay, conditions: diheptanoyl thio-PC substrate, pH 7.5, 40° C. for 30 minutes, absorbance at 405 nanometers; read-out: Inhibition of human secreted PLA2 IC50 ± mean deviation (3-4 tests)

| SMILES | IC50 [nM] |
| --- | --- |
| CCc1c(C(=O)C(N)=O)c2c(OCC(=O)NCC(=O)OC)cccc2n1Cc1ccccc1 [Compound 2A, N-[2-[[3-(Aminooxoacetyl)-2-ethyl-1-(phenylmethyl)-1H-indol-4-yl]oxy]acetyl]glycine Methyl Ester] | 529 |
| CCc1c(C(=O)C(N)=O)c2c(OCC(=O)N[C@@H](C)C(=O)OC)cccc2n1Cc1ccccc1 [Compound 2B, N-[2-[[3-(Aminooxoacetyl)-2-ethyl-1-(phenylmethyl)-1H-indol-4-yl]oxy]acetyl]-L-alanine Methyl Ester] | 533 |
| CCc1c(C(=O)C(N)=O)c2c(OCC(=O)N[C@@H](CC(C)C)C(=O)OC)cccc2n1Cc1ccccc1 [Compound 2C, N-[2-[[3-(Aminooxoacetyl)-2-ethyl-1-(phenylmethyl)-1H-indol-4-yl]oxy]acetyl]-L-leucine Methyl Ester] | 82 |
| CCc1c(C(=O)C(N)=O)c2c(OCC(=O)N[C@@H](CC(=O)OC)C(=O)OC)cccc2n1Cc1ccccc1 [Compound 2D, N-[2-[[3-(Aminooxoacetyl)-2-ethyl-1-(phenylmethyl)-1H-indol-4-yl]oxy]acetyl]-L-aspartic Acid Dimethyl Ester] | 874 |
| CCc1c(C(=O)C(N)=O)c2c(OCC(=O)N[C@@H](Cc3ccccc3)C(=O)OC)cccc2n1Cc1ccccc1 [Compound 2E, N-[2-[[3-(Aminooxoacetyl)-2-ethyl-1-(phenylmethyl)-1H-indol-4-yl]oxy]acetyl]-L-phenylalanine Methyl Ester] | 666 |
| CCc1c(C(=O)C(N)=O)c2c(OCC(=O)NC(C(=O)OC)C(=O)OC)cccc2n1Cc1ccccc1 [Compound 2F, [2-[[3-(Aminooxoacetyl)-2-ethyl-1-(phenylmethyl)-1H-indol-4-yl]oxy]acetamido]malonic Acid Dimethyl Ester] | 698 |
| CCc1c(C(=O)C(N)=O)c2c(OCC(=O)N[C@H](C(=O)OC)C(C)C)cccc2n1Cc1ccccc1 [Compound 2G, N-[2-[[3-(Aminooxoacetyl)-2-ethyl-1-(phenylmethyl)-1H-indol-4-yl]oxy]acetyl]-L-valine Methyl Ester] | 283 |
| CCc1c(C(=O)C(N)=O)c2c(OCC(=O)N[C@H](C(=O)OC)[C@@H](C)CC)cccc2n1Cc1ccccc1 [Compound 2H, N-[2-[[3-(Aminooxoacetyl)-2-ethyl-1-(phenylmethyl)-1H-indol-4-yl]oxy]acetyl]-L-isoleucine Methyl Ester] | 166 |
| CCc1c(C(=O)C(N)=O)c2c(OCC(=O)N[C@H](C(=O)O)[C@@H](C)CC)cccc2n1Cc1ccccc1 [Compound 3H, N-[2-[[3-(Aminooxoacetyl)-2-ethyl-1-(phenylmethyl)-1H-indol-4-yl]oxy]acetyl]-L-isoleucine] | 25.1 |

The next lines start with the values.

| IC50 [nM] | SMILES |
| --- | --- |
| 71 | CCc1c(C(=O)C(N)=O)c2c(OCC(=O)NCC(=O)O)cccc2n1Cc1ccccc1 [Compound 3A, N-[2-[[3-(Aminooxoacetyl)-2-ethyl-1-(phenylmethyl)-1H-indol-4-yl]oxy]acetyl]glycine] |
| 59 | CCc1c(C(=O)C(N)=O)c2c(OCC(=O)N[C@@H](C)C(=O)O)cccc2n1Cc1ccccc1 [Compound 3B, N-[2-[[3-(Aminooxoacetyl)-2-ethyl-1-(phenylmethyl)-1H-indol-4-yl]oxy]acetyl]-L-alanine] |
| 28 | CCc1c(C(=O)C(N)=O)c2c(OCC(=O)N[C@@H](CC(C)C)C(=O)O)cccc2n1Cc1ccccc1 [Compound 3C, N-[2-[[3-(Aminooxoacetyl)-2-ethyl-1-(phenylmethyl)-1H-indol-4-yl]oxy]acetyl]-L-leucine] |
| 132 | CCc1c(C(=O)C(N)=O)c2c(OCC(=O)N[C@@H](CC(=O)O)C(=O)O)cccc2n1Cc1ccccc1 [Compound 3D, N-[2-[[3-(Aminooxoacetyl)-2-ethyl-1-(phenylmethyl)-1H-indol-4-yl]oxy]acetyl]-L-aspartic Acid] |
| 64 | CCc1c(C(=O)C(N)=O)c2c(OCC(=O)N[C@@H](Cc3ccccc3)C(=O)O)cccc2n1Cc1ccccc1 [Compound 3E, N-[2-[[3-(Aminooxoacetyl)-2-ethyl-1-(phenylmethyl)-1H-indol-4-yl]oxy]acetyl]-L-phenylalanine] |
| 44.7 | CCc1c(C(=O)C(N)=O)c2c(OCC(=O)NC(C(=O)O)C(=O)O)cccc2n1Cc1ccccc1 [Compound 3F, [2-[[3-(Aminooxoacetyl)-2-ethyl-1-(phenylmethyl)-1H-indol-4-yl]oxy]acetamido]malonic Acid] |
| 36.4 | CCc1c(C(=O)C(N)=O)c2c(OCC(=O)N[C@H](C(=O)O)C(C)C)cccc2n1Cc1ccccc1 [Compound 3G, N-[2-[[3-(Aminooxoacetyl)-2-ethyl-1-(phenylmethyl)-1H-indol-4-yl]oxy]acetyl]-L-valine] |

Same assay, conditions: statement in words

| SMILES | activity in inhibiting SPLA2 |
| --- | --- |
| CCc1c(C(=O)C(N)=O)c2c(OCC(=O)OC)cccc2n1Cc1ccccc1 [Compound 1, [[3-(2-Amino-1,2-dioxoethyl)-2-ethyl-1-(phenylmethyl)-1H-indol-4-yl]oxy]acetic acid methyl ester] | highly active |
